Results reported in patent US20070048247A1, “Deodorizing tablets” (Kimberly-Clark Worldwide, Inc., priority 2005, published 2007).

Assays:
[1] = Example 3 urine odor panel ranking; design: species or system Human; conditions: for Average Urine Odor Ranking (with statistical corrections), Avg. Score: ignoring statistical anomalies
Description: (§1) The effectiveness of various quinone compounds in reducing urine odor was compared. […] Human female urine was initially collected and pooled by a nurse on staff at Kimberly-Clark Corporation. The pooled urine was added to mason jars in 50-milliliter aliquots using an automated pipette aid. […] The mason jars were placed in an incubator overnight at 37° C.
(§2) In addition to ranking the jars from least to most malodorous (on a scale from 1 to 7, with 7 being the most malodors), panelists were also asked to judge whether there were secondary (non-urine) odors present and, if so, the extent that the secondary odors were unpleasant (on a scale from 1 to 5, with 5 being extremely unpleasant).
In this assessment, panelists were given instructions to rank the least malodorous jar as “1” and the most malodorous jar as “10,” remaining free to rank the other jars between 2-9.

[2] = Example 3 secondary (non-urine) odor ranking; design: species or system Human; conditions: for Secondary Odor Ranking: individual panelist scores, scale 1 to 5, 5 extremely unpleasant
Description: as §1, §2

[3] = Example 5 urine odor panel ranking; design: species or system Human
Description: Assessments were conducted the following day by asking panelists to rate each jar from 1 (least urine malodor) to 8 (most urine malodor). The results are set forth below in Tables 15-18.

[4] = Example 6 urine odor panel ranking; design: species or system Human; conditions: as Example 5, 1 least, 8 most urine malodor
Excerpt: The quinone compounds chosen for this example were Alizarin Blue Black B, Remazol Brilliant Blue R and Acid Green 25. The results are set forth below in Tables 19 and 20.

[5] = Example 7 urine odor panel ranking (16 millimolar); design: species or system Human; conditions: 16 millimolar in urine, 1 least, 10 most urine malodor
Description: The effectiveness of various quinone compounds in reducing urine odor was compared. […] Human female urine was initially collected and pooled at Kimberly-Clark Corporation. The pooled urine was added to mason jars in 50-milliliter aliquots using an automated pipette aid. Powders of the aforementioned quinone compounds (commercially available from Sigma-Aldrich Chemical Co., Inc. of St. Louis, Missouri and Noveon Hilton Davis, Inc. of Cincinnati, Ohio) were weighed and placed into the mason jars containing 50 milliliters of urine so that the final concentration of the powder was 16 millimolar (equivalent to 1 wt. %). The mason jars were placed in an incubator overnight at 37° C. The experimental setup is set forth in more detail below in Table 21.
Jars were wrapped in foil and placed in an incubator at 37° C. overnight. The jars were divided into four groups (C-F), each sharing the same control jar of urine alone (no powder). Assessments were conducted the following day by asking panelists to rate each jar from 1 (least urine malodor) to 10 (most urine malodor).

[6] = Solubility of powder in urine
[7] = Example 1 urine odor panel ranking; design: species or system Human; conditions: 8 millimolar in urine
Excerpt: Human female urine was initially collected and pooled by a nurse on staff at Kimberly-Clark Corporation. […] Powders of Acid Blue 129 and Acid Green 27 (commercially available from Sigma-Aldrich Chemical Co., Inc. of St. Louis, Mo.), as well as D&C Green No. 5 (commercially available from Noveon Hilton Davis, Inc. of Cincinnati, Ohio), were then weighed and placed into the mason jars containing 50 milliliters of urine so that the final concentration of the powder was 8 millimolar (equivalent to 0.5 wt. %). […] A score of “10” was assigned to the most malodorous jar and a score of “1” was assigned to the least malodorous jar.

[8] = Example 3 first grouping, 8 millimolar in urine, scale 1 to 7, 7 most malodorous
[9] = Example 3 second grouping, 8 millimolar in urine, 1 least malodorous
[10] = Example 5 Group B, 8 mM in urine, 1 least, 8 most urine malodor
[11] = Example 5, 8 mM in 50 milliliters of urine
[12] = Example 7, 16 mM in 50 milliliters of urine
[13] = after 6 hours, 1 least, 10 most malodorous
[14] = after 24 hours, 1 least, 10 most malodorous
[15] = Example 3 top performers of both groupings, after 24 hours, 1 least, 10 most malodorous
[16] = Example 3 top performers, after 24 hours
[17] = Example 3 top performers, after 24 hours, 1 least, 10 most malodorous
[18] = Example 5 Group A, 8 mM in urine, 1 least, 8 most urine malodor

## O=C1C=C(S(=O)(=O)[O-])c2ccccc2C1=O.[K+] [1,2 Naphthaquinone]
[1]; Example 3 first grouping
  urine odor reduction (in words): effectively reduced urine odor
[1]; [8]
  Average Urine Odor Ranking, Avg. Score: 3.8
  Urine Odor Ranking 2 (number of panelists): 1
  Urine Odor Ranking 3 (number of panelists): 2
  Urine Odor Ranking 4 (number of panelists): 1
  Urine Odor Ranking 7 (number of panelists): 1
[2]; Example 3 first grouping
  secondary odor (in words): unpleasant secondary smell was found to be present

## O=C1C=C(S(=O)(=O)[O-])C(=O)c2ccccc21.[K+] [1,4 Naphthaquinone, 1,4 naphthaquinone-2-sulfonic acid potassium salt]
[1]; [9]
  Average Urine Odor Ranking, Avg. Score: 1.8
  Urine Odor Ranking 1 (number of panelists): 2
  Urine Odor Ranking 2 (number of panelists): 2
  Urine Odor Ranking 3 (number of panelists): 1
[2]; Example 3 second grouping
  secondary odor (in words): unpleasant secondary odor

## Nc1cc(S(=O)(=O)[O-])c(O)c2c1C(=O)c1c(O)c(S(=O)(=O)[O-])cc(N)c1C2=O.[Na+].[Na+] [Acid Blue 45]
[1]; [9]
  Average Urine Odor Ranking, Avg. Score: 3.4
  Urine Odor Ranking 2 (number of panelists): 1
  Urine Odor Ranking 3 (number of panelists): 2
  Urine Odor Ranking 4 (number of panelists): 1
  Urine Odor Ranking 5 (number of panelists): 1
[3]; Example 5 Group B
  odor reduction performance (in words): performed well
[3]; [10]
  Average Rankings (Group B), Avg. Score: 3.75
  Urine Odor Ranking 1 (number of panelists): 2
  Urine Odor Ranking 6 (number of panelists): 1
  Urine Odor Ranking 7 (number of panelists): 1
[4]
  Average Rankings, Avg. Score: 5.5
  Urine Odor Ranking 2 (number of panelists): 1
  Urine Odor Ranking 6 (number of panelists): 1
  Urine Odor Ranking 7 (number of panelists): 2
[5]; Example 7 Group E
  Average Rankings (Group E), Avg. Score: 6.4
  Urine Odor Ranking 3 (number of panelists): 2
  Urine Odor Ranking 8 (number of panelists): 2
  Urine Odor Ranking 10 (number of panelists): 1
[6]; [11]
  Soluble?: Yes
[6]; [12]
  Soluble?: Mostly

## Cc1cc(C)c(Nc2cc(S(=O)(=O)[O-])c(N)c3c2C(=O)c2ccccc2C3=O)c(C)c1.[Na+] [Acid Blue 129]
[7]
  reducing urine malodor (in words): functioned effectively in reducing urine malodor
[7]; [13]
  Avg. Ranking (odor): 1.6
  Ranking 1 (number of panelists): 4
  Ranking 4 (number of panelists): 1
[7]; [14]
  Avg. Ranking (odor): 1.3
  Ranking 1 (number of panelists): 5
  Ranking 3 (number of panelists): 1
[1]; [9]
  Average Urine Odor Ranking, Avg. Score: 1.8
  Urine Odor Ranking 1 (number of panelists): 3
  Urine Odor Ranking 3 (number of panelists): 2
[1]; [15]
  Urine Odor Ranking 1 (number of panelists): 1
  Urine Odor Ranking 3 (number of panelists): 1
  Urine Odor Ranking 4 (number of panelists): 1
  Urine Odor Ranking 5 (number of panelists): 1
  Urine Odor Ranking 6 (number of panelists): 1
[1]; [16]
  odor reduction (in words): achieved the best odor reduction
  Average Urine Odor Ranking (with statistical corrections), Avg. Score: 3.8
[1]; [17]
  Average Urine Odor Ranking, Avg. Score: 3.8
[3]; Example 5 Group B
  odor reduction performance (in words): performed well
[3]; [10]
  Average Rankings (Group B), Avg. Score: 5
  Urine Odor Ranking 2 (number of panelists): 1
  Urine Odor Ranking 5 (number of panelists): 1
  Urine Odor Ranking 6 (number of panelists): 1
  Urine Odor Ranking 7 (number of panelists): 1
[5]; Example 7 Group E
  Average Rankings (Group E), Avg. Score: 6
  Urine Odor Ranking 1 (number of panelists): 1
  Urine Odor Ranking 4 (number of panelists): 1
  Urine Odor Ranking 7 (number of panelists): 1
  Urine Odor Ranking 9 (number of panelists): 2
[6]; [11]
  Soluble?: Mostly
[6]; [12]
  Soluble?: Somewhat

## Cc1ccc(Nc2ccc(Nc3ccc(C)cc3S(=O)(=O)[O-])c3c2C(=O)c2ccccc2C3=O)c(S(=O)(=O)[O-])c1.[Na+].[Na+] [Acid Green 25]
[1]; Example 3 first grouping
  urine odor reduction (in words): functioned effectively to reduce odor
[1]; [8]
  Average Urine Odor Ranking, Avg. Score: 2.2
  Urine Odor Ranking 1 (number of panelists): 3
  Urine Odor Ranking 2 (number of panelists): 1
  Urine Odor Ranking 6 (number of panelists): 1
[1]; [9]
  Average Urine Odor Ranking, Avg. Score: 4.4
[1]; [15]
  Urine Odor Ranking 1 (number of panelists): 3
  Urine Odor Ranking 2 (number of panelists): 1
  Urine Odor Ranking 10 (number of panelists): 1
[1]; [16]
  odor reduction (in words): achieved the best odor reduction
  Average Urine Odor Ranking (with statistical corrections), Avg. Score: 1.3
[1]; [17]
  Average Urine Odor Ranking, Avg. Score: 3.0
[2]; Example 3 first grouping
  secondary odor (in words): not found to be unpleasant by most panelists
[3]; [18]
  Average Rankings (Group A), Avg. Score: 3
  Urine Odor Ranking 2 (number of panelists): 1
  Urine Odor Ranking 3 (number of panelists): 2
  Urine Odor Ranking 4 (number of panelists): 1
[4]
  Average Rankings, Avg. Score: 2.25
  Urine Odor Ranking 1 (number of panelists): 2
  Urine Odor Ranking 2 (number of panelists): 1
  Urine Odor Ranking 5 (number of panelists): 1
[5]; Example 7 Group F
  Average Rankings (Group F), Avg. Score: 3.2
  Urine Odor Ranking 1 (number of panelists): 2
  Urine Odor Ranking 2 (number of panelists): 1
  Urine Odor Ranking 6 (number of panelists): 2
[6]; [11]
  Soluble?: Yes
[6]; [12]
  Soluble?: Mostly

## Cc1ccc(Nc2ccc(Nc3ccc(C)cc3S(=O)(=O)[O-])c3c2C(=O)c2c(O)ccc(O)c2C3=O)c(S(=O)(=O)[O-])c1.[Na+].[Na+] [Acid Green 41]
[1]; Example 3 first grouping
  urine odor reduction (in words): functioned effectively to reduce odor
[1]; [8]
  Average Urine Odor Ranking, Avg. Score: 2.4
  Urine Odor Ranking 1 (number of panelists): 1
  Urine Odor Ranking 2 (number of panelists): 2
  Urine Odor Ranking 3 (number of panelists): 1
  Urine Odor Ranking 4 (number of panelists): 1
[1]; [15]
  Urine Odor Ranking 1 (number of panelists): 1
  Urine Odor Ranking 2 (number of panelists): 2
  Urine Odor Ranking 3 (number of panelists): 1
  Urine Odor Ranking 7 (number of panelists): 1
[1]; [16]
  odor reduction (in words): achieved the best odor reduction
  Average Urine Odor Ranking (with statistical corrections), Avg. Score: 2.0
[1]; [17]
  Average Urine Odor Ranking, Avg. Score: 3.0
[2]; Example 3 first grouping
  Secondary Odor Ranking: 1
[3]; [18]
  Average Rankings (Group A), Avg. Score: 4.25
  Urine Odor Ranking 2 (number of panelists): 1
  Urine Odor Ranking 3 (number of panelists): 1
  Urine Odor Ranking 5 (number of panelists): 1
  Urine Odor Ranking 7 (number of panelists): 1
[4]
  Average Rankings, Avg. Score: 5.25
  Urine Odor Ranking 3 (number of panelists): 1
  Urine Odor Ranking 4 (number of panelists): 1
  Urine Odor Ranking 6 (number of panelists): 1
  Urine Odor Ranking 8 (number of panelists): 1
[5]; Example 7 Group D
  Average Rankings (Group D), Avg. Score: 1.4
  Urine Odor Ranking 1 (number of panelists): 4
  Urine Odor Ranking 3 (number of panelists): 1
[6]; [11]
  Soluble?: Yes
[6]; [12]
  Soluble?: Yes

## CCN(Cc1cccc(S(=O)(=O)[O-])c1)c1ccc(C(=C2C=CC(=[N+](CC)Cc3cccc(S(=O)(=O)[O-])c3)C=C2)c2ccccc2S(=O)(=O)[O-])cc1.[Na+].[Na+] [FD&C Blue No. 1, FD&C Blue No.1, reference compound]
[1]; [8]
  Average Urine Odor Ranking, Avg. Score: 4.8
  Urine Odor Ranking 4 (number of panelists): 1
  Urine Odor Ranking 5 (number of panelists): 4
[2]; Example 3 first grouping
  Secondary Odor Ranking: 3
